Source: patent publication US20240425491A1, “HETEROARYL COMPOUNDS USEFUL IN THE TREATMENT OF COGNITIVE DISORDERS” (University College Cardiff Consultants Limited, priority 2021, published 2024)
Counter-ions that a name gives are not always drawn.

How the values were obtained:
[1] = target: T1, human recombinant GABAAR containing α5β3γ2 subunits (benzodiazepine site) (Homo sapiens, UniProt P18507+P31644); assay: In vitro radioligand binding assay (α5-GABAAR Ki); conditions: inhibition of [3H]Ro15-1788 binding, membranes of L(tk−) cells expressing human α5β3γ2; read-out: α5-GABAAR Ki
T1 construct: expressed in transfected cells; host or cells: mouse L(tk−) cells, dexamethasone-inducible vector pMSGneo
Outline: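 Displacement of 4 nM [^3H]flumazenil from the benzodiazepine site, read by filtration and scintillation, gave IC50, converted to Ki (Cheng-Prusoff, saturation-derived Kd). Receptor: human α5β3γ2 membranes from L(tk^−) cells, 50 μg protein/well; 1 h, 4° C; TP003 1 μM defined nonspecific binding.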

[2] = target: T2, human α5β3γ2L GABAA receptors in HEK293 cells (Homo sapiens, UniProt P18507+P31644); assay: In vitro electrophysiological recording assay (α5-GABAAR relative efficacy), SyncroPatch; assay type: cell-based; conditions: GABA EC10-20
T2 construct: expressed in transfected cells
From the text: Mouse L(tk^−) cells stably expressing human α1β3γ2, α2β3γ2, α3β3γ2, α5β3γ2 GABAARs generated by transfection of the individual subunits in the dexamethasone-inducible expression vector pMSGneo in mouse L(tk^−) cells (Hadingham et al., 1993, Mol. Pharmacol. 43:970-975 and 1993, Mol. Pharmacol. 44:1211-1218) were used for binding and functional assays. For certain compounds, HEK293 cells stable expressing the human α1β3γ2L, α2β3γ2L, α3β3γ2L and α5β3γ2L GABAA receptors were used to evaluate their functional effects in a SyncroPatch electrophysiology assay.
The efficacy of modulators was evaluated using either the automated patch-clamp platform QPatch16 (Sophion, Copenhagen, Denmark) or the SyncroPatch 384i (Nanion Technologies, Germany). Cells were harvested from flasks by enzymatic dissociation and re-suspended in serum-free medium.
For the Syncropatch recordings, a stacked addition protocol was used, in which GABA was rapidly applied and then washed off from the cell. All experiments were carried out at room temperature (20-22° C.) using a standard whole cell procedure. The currents recorded were acquired at 2 kHz and filtered using a Bessel filter. Whole-cell currents were measured at a holding potential of −80 mV.
For Syncropatch recordings, the extracellular recording solution contained: 140 mM NaCl, 4 mM KCl, 2 mM CaCl2), 1 mM MgCl2, 10 mM HEPES, 5 mM glucose (pH 7.4 and osmolarity of c. 300-310 mOsm/L). The intracellular recording solution contained: 90 mM KCl, 50 mM KF, 1.5 mM MgCl2, 11.1 mM EGTA and 10 mM HEPES (pH 7.2 and osmolarity of c. 300 mOsm/L). 2 mM of NaATP was added to the intracellular solution on the day of testing.
The effects of modulators were evaluated in the presence of a submaximal GABA concentration, giving typically 10-20% activation (GABA EC10-20) of the response elicited by a saturating GABA concentration. For QPatch recordings, to check and ensure baseline current stability before compound addition, five consecutive applications of GABA EC10-20 alone (each application with a 2 s duration, separated by minimum 1 min wash off periods) were performed before compound addition. The test compound was applied using the pipetting system of the QPatch system 1 min at least prior to co-application with GABA EC10-20. For SyncroPatch recordings, GABA EC20 alone was applied three times (1 s long applications, with wash steps in-between) before compound addition. This was followed by a 1-2 min pre-incubation with the test compound and then re-application of GABA EC10-20 in the presence of the compound. Finally, following a further wash step, a saturating concentration of GABA was applied, allowing the accurate evaluation for each cell of the percentage baseline activation elicited by the submaximal GABA applied.
The compounds were first dissolved in DMSO as a 10 mM stock and then further diluted to the testing concentrations so that the final DMSO concentration in the extracellular recording solution was kept constant at 0.1% for the QPatch recordings, or 0.2% for the SyncroPatch recordings.
The % efficacy of modulators was determined from the GABA elicited currents recorded in the presence and absence of the test compound, using the formula:
[((compound peak current−leak)−(GABA peak current−leak))/(GABA peak current−leak)]*100,
where ‘leak’ is the leak baseline current at −65 mV, ‘compound peak current’ is the current elicited by co-application of compound and GABA, and ‘GABA peak current’ is the current elicited by GABA alone during the 5th GABA application. The results were presented as ‘relative efficacy’ for each compound generally at a concentration equal or higher than 100 times their determined Ki. The relative efficacy of a compound was calculated by normalising its efficacy to the efficacy of methyl-6,7-dimethoxy-4-ethyl-beta-carboline-3-carboxylate (DMCM) that was separately determined produced an attenuation of GABA-induced currents of −57±4%, n=5.

[3] = target: T3, human α5β3γ2 GABAARs in mouse L(tk−) cells (Homo sapiens, UniProt P18507+P31644); assay: In vitro electrophysiological recording assay (α5-GABAAR relative efficacy), QPatch; assay type: cell-based; conditions: GABA EC10-20
T3 construct: expressed in transfected cells; host or cells: mouse L(tk−) cells, dexamethasone-inducible vector pMSGneo
Outline: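 Whole-cell QPatch recordings at 20-22° C, −65 mV holding, in dexamethasone-induced (1 μM, 24 h) L(tk−) cells. Compound pre-applied ≥1 min, then co-applied with GABA EC10-20; percentage change in leak-corrected peak current, taken at ≥100× Ki, normalised to DMCM efficacy; 0.1% DMSO final.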

T3 sequence (P31644 32-462): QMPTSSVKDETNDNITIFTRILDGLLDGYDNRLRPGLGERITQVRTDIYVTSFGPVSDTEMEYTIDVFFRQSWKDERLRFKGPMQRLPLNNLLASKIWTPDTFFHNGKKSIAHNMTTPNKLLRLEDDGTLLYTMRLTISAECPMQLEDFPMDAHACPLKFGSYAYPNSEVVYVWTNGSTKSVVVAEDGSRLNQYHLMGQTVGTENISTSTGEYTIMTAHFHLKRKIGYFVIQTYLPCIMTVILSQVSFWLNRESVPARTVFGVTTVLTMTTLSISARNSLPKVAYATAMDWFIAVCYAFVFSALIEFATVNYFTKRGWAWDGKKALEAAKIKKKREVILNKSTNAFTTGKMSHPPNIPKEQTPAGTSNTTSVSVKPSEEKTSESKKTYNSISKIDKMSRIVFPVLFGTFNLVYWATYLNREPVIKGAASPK
T3 sequence (P28472 26-473 partner): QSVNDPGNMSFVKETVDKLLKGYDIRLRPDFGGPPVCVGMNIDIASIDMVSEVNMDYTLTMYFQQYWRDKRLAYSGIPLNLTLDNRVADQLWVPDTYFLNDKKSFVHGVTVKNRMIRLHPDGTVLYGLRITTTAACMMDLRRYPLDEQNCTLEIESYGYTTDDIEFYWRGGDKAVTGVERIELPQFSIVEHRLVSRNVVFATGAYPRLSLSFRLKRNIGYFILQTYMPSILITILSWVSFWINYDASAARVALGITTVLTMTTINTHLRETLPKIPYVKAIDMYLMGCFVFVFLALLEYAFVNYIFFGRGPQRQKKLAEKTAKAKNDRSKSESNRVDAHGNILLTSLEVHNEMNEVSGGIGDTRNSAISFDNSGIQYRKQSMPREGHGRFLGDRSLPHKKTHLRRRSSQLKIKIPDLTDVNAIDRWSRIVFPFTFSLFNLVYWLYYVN
T3 sequence (P18507 40-475): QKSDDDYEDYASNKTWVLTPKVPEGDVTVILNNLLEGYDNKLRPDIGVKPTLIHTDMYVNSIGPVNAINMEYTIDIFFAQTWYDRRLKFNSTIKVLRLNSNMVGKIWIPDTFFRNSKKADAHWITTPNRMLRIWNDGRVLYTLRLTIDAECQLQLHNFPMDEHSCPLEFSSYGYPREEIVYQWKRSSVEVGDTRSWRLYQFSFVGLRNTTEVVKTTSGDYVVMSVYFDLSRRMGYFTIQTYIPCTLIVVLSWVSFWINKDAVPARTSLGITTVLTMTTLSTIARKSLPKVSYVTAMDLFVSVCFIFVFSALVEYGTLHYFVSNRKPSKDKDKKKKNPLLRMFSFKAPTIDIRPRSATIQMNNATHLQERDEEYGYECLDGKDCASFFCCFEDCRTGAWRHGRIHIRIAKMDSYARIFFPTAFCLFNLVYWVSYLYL
T2 sequence (P31644 32-462): as the sequence (P31644 32-462) above
T2 sequence (P28472 26-473 partner): as the sequence (P28472 26-473 partner) above
T2 sequence (P18507 40-475): as the sequence (P18507 40-475) above
T1 sequence (P31644 32-462): as the sequence (P31644 32-462) above
T1 sequence (P28472 26-473 partner): as the sequence (P28472 26-473 partner) above
T1 sequence (P18507 40-475): as the sequence (P18507 40-475) above

Row | Ki [1] [nM] | α5-GABAAR Relative Efficacy (to DMCM), SyncroPatch ([2]; Conc 0.1 μM) | SMILES | further results
1 | 0.6 | −0.73 | COc1nc(-c2ccc(CN3CC4COCC(C4)C3)nc2)ccc1NC(=O)c1c(-c2ccccc2)noc1C [Example 232, N-(6′-((3-oxa-7-azabicyclo[3.3.1]nonan-7-yl)methyl)-6-methoxy-[2,3′-bipyridin]-5-yl)-5-methyl-3-phenylisoxazole-4-carboxamide] | 
2 | 0.4 | −0.85 | COc1nc(-c2cnc(N)nc2)ccc1NC(=O)c1c(-c2ccc(F)cc2)noc1C [Example 213, N-[6-(2-Aminopyrimidin-5-yl)-2-methoxy-3-pyridyl]-3-(4-fluorophenyl)-5-methyl-isoxazole-4-carboxamide] | 
3 | 1.3 | −1.00 | COc1nc(-c2ccc(CN3CC4(COC4)C3)nc2)ccc1NC(=O)c1c(-c2ccccc2)noc1C [Example 231, N-(6′-((2-oxa-6-azaspiro[3.3]heptan-6-yl)methyl)-6-methoxy-[2,3′-bipyridin]-5-yl)-5-methyl-3-phenylisoxazole-4-carboxamide] | 
4 | 0.4 | −0.81 | Cc1onc(-c2ccccc2)c1C(=O)Nc1ccc(-c2cnc(N)nc2)nc1OC(C)C [Example 214, N-[6-(2-Aminopyrimidin-5-yl)-2-isopropoxy-3-pyridyl]-5-methyl-3-phenyl-isoxazole-4-carboxamide] | 
5 | 19.5 | −0.51 | Cc1onc(-c2ccc(F)cc2)c1C(=O)Nc1ccc(-c2cnc(N)nc2)nc1OCCO [Example 218, N-[6-(2-Aminopyrimidin-5-yl)-2-(2-hydroxyethoxy)-3-pyridyl]-3-(4-fluorophenyl)-5-methyl-isoxazole-4-carboxamide] | 
6 | 1.4 | −1.10 | COc1nc(-c2ccc(CN3CCOCC3)nc2)ccc1NC(=O)c1c(-c2ccccc2)noc1C [Example 230, N-(6-methoxy-6′-(morpholinomethyl)-[2,3′-bipyridin]-5-yl)-5-methyl-3-phenyl-isoxazole-4-carboxamide] | 
7 | 87.4 | −0.79 | COc1nc(-c2cnoc2)ncc1NC(=O)c1c(-c2ccccc2)noc1C [Example 229, N-(2-isoxazol-4-yl-4-methoxy-pyrimidin-5-yl)-5-methyl-3-phenyl-isoxazole-4-carboxamide] | 
8 | 0.8 | −1.15 | COc1nc(-c2cnoc2)ccc1NC(=O)c1c(-c2ccc(F)cc2)noc1C [Example 221, 3-(4-fluorophenyl)-N-(6-(isoxazol-4-yl)-2-methoxypyridin-3-yl)-5-methylisoxazole-4-carboxamide] | 
9 | 1.5 | −0.67 | Cc1onc(-c2ccc(F)cc2)c1C(=O)Nc1ccc(-c2cnc(N)nc2)nc1OC1COC1 [Example 216, N-[6-(2-Aminopyrimidin-5-yl)-2-(oxetan-3-yloxy)-3-pyridyl]-3-(4-fluorophenyl)-5-methyl-isoxazole-4-carboxamide] | 
10 | 4.4 |  | COc1nc(-c2ccc(CO)cc2)ccc1NC(=O)c1c(-c2ccccc2)noc1C [Example 219, N-[6-[4-(hydroxymethyl)phenyl]-2-methoxy-3-pyridyl]-5-methyl-3-phenyl-isoxazole-4-carboxamide] | α5-GABAAR Relative Efficacy (to DMCM), SyncroPatch ([2]; Conc 0.03 μM): −0.45
11 | 10.7 |  | COc1nc(-c2cnn(C3CCCCO3)n2)ccc1NC(=O)c1c(-c2ccccc2)noc1C (stereo not shown) [Example 84, N-(2-Methoxy-6-(2-(tetrahydro-2H-pyran-2-yl)-2H-1,2,3-triazol-4-yl)pyridin-3-yl)-5-methyl-3-phenylisoxazole-4-carboxamide] | α5-GABAAR Relative Efficacy (to DMCM), Qpatch ([3]; Conc 3 μM): −0.51
12 | 2 |  | COc1nc(-c2cncnc2)ccc1NC(=O)c1c(-c2ccccc2)noc1C [Example 7, N-(2-Methoxy-6-pyrimidin-5-yl-3-pyridyl)-5-methyl-3-phenyl-isoxazole-4-carboxamide] | α5-GABAAR Relative Efficacy (to DMCM), Qpatch ([3]; Conc 0.3 μM): −0.77
13 | 4.3 |  | COc1nc(-c2cnn(C)c2)cnc1NC(=O)c1c(-c2ccccc2)noc1C [Example 19, N-[3-Methoxy-5-(1-methylpyrazol-4-yl)pyrazin-2-yl]-5-methyl-3-phenyl-isoxazole-4-carboxamide] | α5-GABAAR Relative Efficacy (to DMCM), Qpatch ([3]; Conc 1 μM): −0.86
14 | 16.8 |  | COc1nc(-c2cn(CCN)cn2)ccc1NC(=O)c1c(-c2ccccc2)noc1C [Example 200, N-(6-(1-(2-Aminoethyl)-1H-imidazol-4-yl)-2-methoxypyridin-3-yl)-5-methyl-3-phenylisoxazole-4-carboxamide dihydrochloride] | α5-GABAAR Relative Efficacy (to DMCM), Qpatch ([3]; Conc 3 μM): −0.53
15 | 19.1 |  | COc1nc(-c2cccc3c2CNC3=O)ccc1NC(=O)c1c(-c2ccccc2)noc1C [Example 97, N-(2-Methoxy-6-(1-oxoisoindolin-4-yl)pyridin-3-yl)-5-methyl-3-phenylisoxazole-4-carboxamide] | α5-GABAAR Relative Efficacy (to DMCM), Qpatch ([3]; Conc 3 μM): −0.67
16 | 2.8 |  | COc1cc(-c2cn[nH]c2)cnc1NC(=O)c1c(-c2ccccc2)noc1C [Example 18, N-[3-Methoxy-5-(1H-pyrazol-4-yl)-2-pyridyl]-5-methyl-3-phenyl-isoxazole-4-carboxamide] | α5-GABAAR Relative Efficacy (to DMCM), Qpatch ([3]; Conc 0.3 μM): −0.61
17 | 8 |  | COc1nc(-c2cc(C)nc(N)c2)ccc1NC(=O)c1c(-c2ccccc2)noc1C [Example 81, N-(2′-Amino-6-methoxy-6′-methyl-[2,4′-bipyridin]-5-yl)-5-methyl-3-phenylisoxazole-4-carboxamide] | α5-GABAAR Relative Efficacy (to DMCM), Qpatch ([3]; Conc 1 μM): −1.26
18 | 45.1 |  | COc1nc(-n2ccnc2)ccc1NC(=O)c1c(C)nnn1-c1ccccc1 [Example 151, N-(6-(1H-Imidazol-1-yl)-2-methoxypyridin-3-yl)-4-methyl-1-phenyl-1H-1,2,3-triazole-5-carboxamide] | α5-GABAAR Relative Efficacy (to DMCM), Qpatch ([3]; Conc 3 μM): −0.89
19 | 2.1 |  | COc1nc(-c2ncc[nH]2)ccc1NC(=O)c1c(-c2ccccc2)noc1C [Example 121, N-[6-(1H-Imidazol-2-yl)-2-methoxy-3-pyridyl]-5-methyl-3-phenyl-isoxazole-4-carboxamide] | α5-GABAAR Relative Efficacy (to DMCM), Qpatch ([3]; Conc 0.3 μM): −0.36

Row | SMILES | Ki [1] [nM] | α5-GABAAR Relative Efficacy (to DMCM), SyncroPatch ([2]; Conc 0.1 μM) | further results
20 | COc1nc(-c2cnc(NCCN)nc2)ccc1NC(=O)c1c(-c2ccccc2)noc1C.Cl [Example 171, N-[6-[2-(2-Aminoethylamino)pyrimidin-5-yl]-2-methoxy-3-pyridyl]-5-methyl-3-phenyl-isoxazole-4-carboxamide hydrochloride] | 3.8 |  | α5-GABAAR Relative Efficacy (to DMCM), Qpatch ([3]; Conc 0.1 μM): −0.75
